Experimental data taken from paper PMC11423540, “Synthesis and biological evaluation of ortho-phenyl phenylhydroxamic acids containing phenothiazine with improved selectivity for class IIa histone deacetylases” (Journal of Enzyme Inhibition and Medicinal Chemistry, 2024).

Columns and labels:
SCC2095 cells [1] = test: Cell viability (MTT) assay, SCC2095; assay type: cell-based; details: Homo sapiens, 48 h, human oral cancer cells, read-out: IC50 of cytotoxicity SCC2095
Description: Human breast cancer MDA-MB-231 cells and gastric cancer SCM-1 cells were purchased from the American Type Culture Collection (Manasas, VA, USA). SCC2095 human oral cancer cells were kindly provided by Professor Susan R. Mallery (The Ohio State University).
(§1) To assess cell viability, cells were seeded in three replicates into 96-well plates at a density of 5×10^3/well for 24 h following incubation with compounds at the indicated concentrations. Then, cell viability was assessed with 3–(4,5-dimethylthiazol-2-yl)-2,5-diphenyltetrazolium bromide (MTT) solution (0.5 mg/mL) for 4h as described previously. After removing the medium, 200 µL of DMSO was added, and then the absorbance was measured at 570 nm using a plate reader (BMG LABTECH, Germany).

MDA-MB-231 cells = test: Cell viability (MTT) assay, MDA-MB-231; assay type: cell-based; details: human breast cancer cells, read-out: IC50 of cytotoxicity MDA-MB-231
From the text: (§2) Human breast cancer MDA-MB-231 cells and gastric cancer SCM-1 cells were purchased from the American Type Culture Collection (Manasas, VA, USA). SCC2095 human oral cancer cells were kindly provided by Professor Susan R. Mallery (The Ohio State University). Normal human lung fibroblasts (NHLFs; CC-2512) were purchased from the Lonza (Walkersville, MD, USA). SCM-1 cells were maintained in RPMI-1640 medium (Invitrogen, Carlsbad, CA, USA); MDA-MB-231 and SCC2095 cells were maintained in DMEM/F12 (Invitrogen); and NHLFs were maintained in FGM™-2 medium (Lonza) with 2% serum, supplemented with 10% heat-inactivated foetal bovine serum (FBS; Gibco, Grand Island, NY, USA). All cells were cultured at 37 °C in a humidified incubator containing 5% CO2 and 95% relative humidity.
as §1

SCM-1 cells = test: Cell viability (MTT) assay, SCM-1; assay type: cell-based; details: human gastric cancer cells, read-out: IC50 of cytotoxicity SCM-1
From the text: as §2, §1

SCC2095 cells [2] = test: Annexin V-FITC/PI flow cytometric apoptosis analysis; assay type: cell-based, human; details: for apoptosis rate: 48 h
Description: Cells (2 × 10^5) were treated with tested compounds in 6-well plates for 24 h or 48 h, then washed with ice-cold PBS twice and harvested with trypsin. Cells were incubated with 5 µL Annexin V- FITC/PI (BD Pharmingen, San Diego) for 15 min in the dark condition. Then, the cells were measured by BD FACSCanto flow cytometer (BD, Franklin Lakes, NJ). For ROS determination, DMSO or H2O2 or compound 7 g-treated cells were stained with the ROS probe (DCFH-DA; 5 µM) and detected the DCFH-DA fluorescence.

HDAC7 = biological target: T1, HDAC7 (Homo sapiens, UniProt Q8WUI4); test: HDAC inhibition assay, HDAC7
T1 sequence (Q8WUI4 1-952): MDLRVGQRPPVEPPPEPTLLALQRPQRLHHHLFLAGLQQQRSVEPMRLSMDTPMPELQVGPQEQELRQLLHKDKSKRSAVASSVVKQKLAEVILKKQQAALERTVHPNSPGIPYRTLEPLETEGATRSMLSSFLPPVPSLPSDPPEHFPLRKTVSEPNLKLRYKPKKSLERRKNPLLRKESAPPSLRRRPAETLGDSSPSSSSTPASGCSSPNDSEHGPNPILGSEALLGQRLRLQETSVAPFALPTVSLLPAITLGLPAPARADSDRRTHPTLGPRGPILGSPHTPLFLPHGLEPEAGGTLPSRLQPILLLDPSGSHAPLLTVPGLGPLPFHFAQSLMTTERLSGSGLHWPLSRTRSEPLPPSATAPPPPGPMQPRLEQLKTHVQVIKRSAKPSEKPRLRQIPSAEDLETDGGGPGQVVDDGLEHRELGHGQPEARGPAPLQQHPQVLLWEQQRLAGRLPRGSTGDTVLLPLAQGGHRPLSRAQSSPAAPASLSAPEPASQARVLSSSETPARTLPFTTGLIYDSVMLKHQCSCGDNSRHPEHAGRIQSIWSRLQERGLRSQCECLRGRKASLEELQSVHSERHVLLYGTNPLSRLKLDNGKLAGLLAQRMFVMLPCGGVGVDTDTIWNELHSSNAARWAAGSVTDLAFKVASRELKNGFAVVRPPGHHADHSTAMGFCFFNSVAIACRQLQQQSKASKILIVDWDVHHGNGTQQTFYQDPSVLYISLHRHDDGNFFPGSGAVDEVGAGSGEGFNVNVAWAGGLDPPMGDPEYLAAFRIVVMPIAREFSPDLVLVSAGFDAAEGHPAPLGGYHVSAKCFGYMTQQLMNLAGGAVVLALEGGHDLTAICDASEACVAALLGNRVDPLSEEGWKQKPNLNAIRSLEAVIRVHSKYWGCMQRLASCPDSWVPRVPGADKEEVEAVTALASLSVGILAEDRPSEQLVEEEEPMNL

HDAC9 = HDAC9 (Homo sapiens, UniProt Q9UKV0); test: HDAC inhibition assay, HDAC9
HDAC8 = biological target: T2, HDAC8 (Homo sapiens, UniProt Q9BY41); test: HDAC inhibition assay, HDAC8
T2 sequence (Q9BY41 1-377): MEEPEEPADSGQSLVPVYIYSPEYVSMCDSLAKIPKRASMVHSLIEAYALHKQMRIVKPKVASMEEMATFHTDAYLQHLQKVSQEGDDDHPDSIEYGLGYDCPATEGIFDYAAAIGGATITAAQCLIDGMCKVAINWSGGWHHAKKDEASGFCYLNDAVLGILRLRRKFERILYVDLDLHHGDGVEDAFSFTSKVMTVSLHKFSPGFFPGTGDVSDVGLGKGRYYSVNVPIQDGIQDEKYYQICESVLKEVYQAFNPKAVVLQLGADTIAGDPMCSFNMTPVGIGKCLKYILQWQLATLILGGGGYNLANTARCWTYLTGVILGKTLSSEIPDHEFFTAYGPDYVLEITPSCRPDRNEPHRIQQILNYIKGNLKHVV

HeLa nuclear HDACs = test: HDAC inhibition assay, HeLa nuclear extract (mixture of class I HDACs 1, 2, and 3); details: read-out: IC50 HeLa nuclear HDACs, Boc-Lys-(AMC) substrate

Sequence of HDAC9 (Q9UKV0 whole entry): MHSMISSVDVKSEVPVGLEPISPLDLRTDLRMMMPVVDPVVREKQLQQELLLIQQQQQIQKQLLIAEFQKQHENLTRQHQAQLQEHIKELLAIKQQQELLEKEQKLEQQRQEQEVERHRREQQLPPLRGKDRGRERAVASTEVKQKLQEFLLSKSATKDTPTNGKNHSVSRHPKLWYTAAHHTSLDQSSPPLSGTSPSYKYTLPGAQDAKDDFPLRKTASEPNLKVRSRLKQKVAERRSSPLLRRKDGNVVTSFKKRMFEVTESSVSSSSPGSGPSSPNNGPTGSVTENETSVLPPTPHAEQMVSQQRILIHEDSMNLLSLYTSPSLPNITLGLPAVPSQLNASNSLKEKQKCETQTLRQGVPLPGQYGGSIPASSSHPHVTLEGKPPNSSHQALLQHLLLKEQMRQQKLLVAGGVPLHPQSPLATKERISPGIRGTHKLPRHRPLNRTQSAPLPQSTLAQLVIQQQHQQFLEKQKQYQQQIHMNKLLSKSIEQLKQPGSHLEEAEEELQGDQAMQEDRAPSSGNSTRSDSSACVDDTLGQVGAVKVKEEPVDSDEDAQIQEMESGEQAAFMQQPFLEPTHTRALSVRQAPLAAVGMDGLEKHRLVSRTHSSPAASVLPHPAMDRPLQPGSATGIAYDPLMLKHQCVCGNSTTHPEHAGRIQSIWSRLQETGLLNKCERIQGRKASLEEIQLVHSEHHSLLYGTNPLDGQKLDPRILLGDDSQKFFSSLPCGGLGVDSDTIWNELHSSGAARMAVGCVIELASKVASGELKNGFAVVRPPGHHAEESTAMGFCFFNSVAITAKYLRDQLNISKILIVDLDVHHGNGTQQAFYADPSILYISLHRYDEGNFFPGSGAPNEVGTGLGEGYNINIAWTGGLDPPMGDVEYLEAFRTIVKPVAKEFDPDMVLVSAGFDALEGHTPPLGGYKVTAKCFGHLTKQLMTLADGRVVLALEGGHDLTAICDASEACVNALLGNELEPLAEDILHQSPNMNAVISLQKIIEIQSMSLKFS

- IC50 (HDAC7): 190 ± 40 nM
- IC50 (HDAC9): 40 ± 1 nM
- IC50 (HDAC8): 1950 nM
- IC50 (HeLa nuclear HDACs): > 40000 nM
Structure (SMILES): NC(=NO)c1ccc2c(c1)N(Cc1ccc(C(=O)NO)c(-c3ccccc3)c1)c1ccccc1S2 [Compound 7g, N-Hydroxy-4-[2-(N’-hydroxycarbamimidoyl)-10H-phenothiazin-10-yl]methyl-2-phenylbenzamide]
- IC50 (SCC2095 cells [1]): 3000 ± 300 nM
- IC50 (MDA-MB-231 cells): 8400 ± 2700 nM
- IC50 (SCM-1 cells): 5800 ± 300 nM
- apoptosis rate (SCC2095 cells [2]; 1 µM): 29.2%
- apoptosis rate (SCC2095 cells [2]; 2.5 µM): 35.9%
- apoptosis rate (SCC2095 cells [2]; 5 µM): 44.4%
- apoptosis rate (SCC2095 cells [2]; 7.5 µM): 78.2%
- percentage of apoptotic cells (SCC2095 cells [2]; 10 µM, 24 h): 83.6%
- apoptosis rate (SCC2095 cells [2]; 10 µM): 87.1%
